Measured values published in the kinase profiling compilation of Christmann-Franck et al. (2016).
Where “and” joins values, the source holds several entries; their conditions need not be identical. Equal values may be shown once.

Experiments:
Test in all cases: radiometric filter-binding kinase assay, Kinase HotSpot
Settings in all cases: compound 0.5 µM; ATP 10 µM
[1] = biological target: EGFR (human) (UniProt P00533)
[2] = biological target: CHEK2 (human) (UniProt O96017)
[3] = biological target: IGF1R (human) (UniProt P08069)
[4] = biological target: MAP4K4 (human) (UniProt O95819)
[5] = biological target: AURKB (human) (UniProt Q96GD4)
[6] = biological target: CLK2 (human) (UniProt P49760)
[7] = biological target: CSK (human) (UniProt P41240)
Chain of CSK (human) (P41240 whole entry, looked up): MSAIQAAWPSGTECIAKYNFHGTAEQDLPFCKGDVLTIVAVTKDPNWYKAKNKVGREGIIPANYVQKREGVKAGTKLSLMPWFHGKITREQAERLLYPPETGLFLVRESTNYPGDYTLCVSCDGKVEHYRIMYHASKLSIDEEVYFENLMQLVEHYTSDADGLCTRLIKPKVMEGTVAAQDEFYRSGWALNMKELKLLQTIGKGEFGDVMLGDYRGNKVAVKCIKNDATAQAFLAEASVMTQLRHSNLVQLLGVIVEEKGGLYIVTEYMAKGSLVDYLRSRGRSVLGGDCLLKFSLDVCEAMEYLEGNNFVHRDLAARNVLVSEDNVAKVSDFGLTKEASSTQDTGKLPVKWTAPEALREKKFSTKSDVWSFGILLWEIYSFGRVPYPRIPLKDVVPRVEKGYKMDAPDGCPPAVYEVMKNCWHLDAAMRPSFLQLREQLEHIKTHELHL

[8] = biological target: MAPKAPK2 (human) (UniProt P49137)
[9] = biological target: PLK3 (human) (UniProt Q9H4B4)
Chain of PLK3 (human) (Q9H4B4 whole entry, looked up): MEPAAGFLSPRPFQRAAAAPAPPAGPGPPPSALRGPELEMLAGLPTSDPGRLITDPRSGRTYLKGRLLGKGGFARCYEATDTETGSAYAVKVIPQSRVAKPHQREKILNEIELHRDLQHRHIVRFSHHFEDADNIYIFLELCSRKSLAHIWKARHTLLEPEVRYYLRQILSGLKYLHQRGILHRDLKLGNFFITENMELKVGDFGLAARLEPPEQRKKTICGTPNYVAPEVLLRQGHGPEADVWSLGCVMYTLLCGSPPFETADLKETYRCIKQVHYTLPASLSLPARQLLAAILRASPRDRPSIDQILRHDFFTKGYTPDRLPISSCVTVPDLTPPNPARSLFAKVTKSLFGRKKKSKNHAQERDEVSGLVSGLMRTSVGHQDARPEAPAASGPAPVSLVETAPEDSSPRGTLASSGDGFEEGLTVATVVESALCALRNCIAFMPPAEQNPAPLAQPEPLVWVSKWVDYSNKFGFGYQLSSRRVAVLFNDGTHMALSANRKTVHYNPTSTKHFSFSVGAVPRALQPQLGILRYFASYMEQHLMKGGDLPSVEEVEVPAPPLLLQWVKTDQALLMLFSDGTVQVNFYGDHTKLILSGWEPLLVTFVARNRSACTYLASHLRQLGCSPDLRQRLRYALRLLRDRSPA

[10] = biological target: PAK1 (human) (UniProt Q13153)
Chain of PAK1 (human) (Q13153 whole entry, looked up): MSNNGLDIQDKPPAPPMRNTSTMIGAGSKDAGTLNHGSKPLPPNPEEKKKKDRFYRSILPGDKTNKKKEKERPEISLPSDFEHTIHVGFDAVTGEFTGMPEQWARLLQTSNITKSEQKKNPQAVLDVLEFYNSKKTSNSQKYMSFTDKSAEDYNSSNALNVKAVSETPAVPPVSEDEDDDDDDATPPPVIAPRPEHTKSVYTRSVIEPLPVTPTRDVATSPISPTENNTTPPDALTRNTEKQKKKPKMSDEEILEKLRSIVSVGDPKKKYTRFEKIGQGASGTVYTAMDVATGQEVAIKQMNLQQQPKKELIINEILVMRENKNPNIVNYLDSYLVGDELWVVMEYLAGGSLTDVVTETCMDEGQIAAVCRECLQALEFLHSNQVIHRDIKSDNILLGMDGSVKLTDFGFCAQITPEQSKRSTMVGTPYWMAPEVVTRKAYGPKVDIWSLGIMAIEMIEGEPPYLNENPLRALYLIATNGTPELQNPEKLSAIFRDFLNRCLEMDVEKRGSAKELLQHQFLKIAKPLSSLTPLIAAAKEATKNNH

[11] = biological target: PRKCG (human) (UniProt P05129)
[12] = biological target: IKBKB (human) (UniProt O14920)
Chain of IKBKB (human) (O14920 whole entry, looked up): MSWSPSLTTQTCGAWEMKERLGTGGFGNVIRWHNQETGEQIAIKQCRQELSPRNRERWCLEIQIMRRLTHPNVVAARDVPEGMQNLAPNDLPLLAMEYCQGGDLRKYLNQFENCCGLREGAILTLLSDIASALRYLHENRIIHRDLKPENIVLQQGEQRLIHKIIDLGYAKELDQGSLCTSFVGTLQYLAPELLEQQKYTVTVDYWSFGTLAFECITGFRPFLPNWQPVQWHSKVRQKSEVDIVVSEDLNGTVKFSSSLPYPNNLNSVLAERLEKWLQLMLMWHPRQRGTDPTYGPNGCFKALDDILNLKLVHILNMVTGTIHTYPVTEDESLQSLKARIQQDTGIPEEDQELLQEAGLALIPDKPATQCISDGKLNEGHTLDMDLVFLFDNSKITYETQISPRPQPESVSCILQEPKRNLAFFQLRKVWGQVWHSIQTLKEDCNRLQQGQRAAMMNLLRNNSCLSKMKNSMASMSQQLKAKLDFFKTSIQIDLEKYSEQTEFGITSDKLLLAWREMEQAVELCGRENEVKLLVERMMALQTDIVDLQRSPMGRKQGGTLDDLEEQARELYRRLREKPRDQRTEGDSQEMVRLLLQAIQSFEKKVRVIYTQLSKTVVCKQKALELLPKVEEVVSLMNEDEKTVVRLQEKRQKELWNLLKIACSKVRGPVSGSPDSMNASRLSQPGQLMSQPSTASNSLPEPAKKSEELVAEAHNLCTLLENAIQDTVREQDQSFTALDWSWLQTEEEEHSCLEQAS

[13] = biological target: MAP3K11 (human) (UniProt Q16584)
[14] = biological target: CAMK2A (human) (UniProt Q9UQM7)
[15] = biological target: GSG2 (human) (UniProt Q8TF76)
[16] = biological target: CDK3 CCNE1 (human) (UniProt Q00526+P24864)
[17] = biological target: ALK (human) (UniProt Q9UM73)
[18] = biological target: CDC42BPA (human) (UniProt Q5VT25)
[19] = biological target: PRKCH (human) (UniProt P24723)
[20] = biological target: ULK3 (human) (UniProt Q6PHR2)
Chain of ULK3 (human) (Q6PHR2 whole entry, looked up): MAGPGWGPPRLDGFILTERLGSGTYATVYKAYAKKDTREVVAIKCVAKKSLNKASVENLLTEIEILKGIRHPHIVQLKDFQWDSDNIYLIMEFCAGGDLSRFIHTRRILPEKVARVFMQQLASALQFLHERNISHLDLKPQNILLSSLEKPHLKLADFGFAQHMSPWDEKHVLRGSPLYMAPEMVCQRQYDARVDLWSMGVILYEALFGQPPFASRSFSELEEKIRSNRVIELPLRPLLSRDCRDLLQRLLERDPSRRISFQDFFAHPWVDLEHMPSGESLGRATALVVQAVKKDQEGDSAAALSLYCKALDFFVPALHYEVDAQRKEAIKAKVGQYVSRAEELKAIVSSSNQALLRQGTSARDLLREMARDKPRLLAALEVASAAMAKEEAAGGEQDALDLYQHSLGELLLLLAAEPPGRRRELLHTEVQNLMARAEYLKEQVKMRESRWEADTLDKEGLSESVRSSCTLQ

[21] = biological target: CDK7 CCNH MNAT1 (human) (UniProt P50613+P51948+P51946)
[22] = biological target: PRKCE (human) (UniProt Q02156)
[23] = biological target: MAP3K7 TAB1 (human) (UniProt O43318+Q15750)
[24] = biological target: EPHA4 (human) (UniProt P54764)
[25] = biological target: NEK9 (human) (UniProt Q8TD19)
[26] = biological target: EPHA6 (human) (UniProt Q9UF33)
Chain of EPHA6 (human) (Q9UF33 whole entry, looked up): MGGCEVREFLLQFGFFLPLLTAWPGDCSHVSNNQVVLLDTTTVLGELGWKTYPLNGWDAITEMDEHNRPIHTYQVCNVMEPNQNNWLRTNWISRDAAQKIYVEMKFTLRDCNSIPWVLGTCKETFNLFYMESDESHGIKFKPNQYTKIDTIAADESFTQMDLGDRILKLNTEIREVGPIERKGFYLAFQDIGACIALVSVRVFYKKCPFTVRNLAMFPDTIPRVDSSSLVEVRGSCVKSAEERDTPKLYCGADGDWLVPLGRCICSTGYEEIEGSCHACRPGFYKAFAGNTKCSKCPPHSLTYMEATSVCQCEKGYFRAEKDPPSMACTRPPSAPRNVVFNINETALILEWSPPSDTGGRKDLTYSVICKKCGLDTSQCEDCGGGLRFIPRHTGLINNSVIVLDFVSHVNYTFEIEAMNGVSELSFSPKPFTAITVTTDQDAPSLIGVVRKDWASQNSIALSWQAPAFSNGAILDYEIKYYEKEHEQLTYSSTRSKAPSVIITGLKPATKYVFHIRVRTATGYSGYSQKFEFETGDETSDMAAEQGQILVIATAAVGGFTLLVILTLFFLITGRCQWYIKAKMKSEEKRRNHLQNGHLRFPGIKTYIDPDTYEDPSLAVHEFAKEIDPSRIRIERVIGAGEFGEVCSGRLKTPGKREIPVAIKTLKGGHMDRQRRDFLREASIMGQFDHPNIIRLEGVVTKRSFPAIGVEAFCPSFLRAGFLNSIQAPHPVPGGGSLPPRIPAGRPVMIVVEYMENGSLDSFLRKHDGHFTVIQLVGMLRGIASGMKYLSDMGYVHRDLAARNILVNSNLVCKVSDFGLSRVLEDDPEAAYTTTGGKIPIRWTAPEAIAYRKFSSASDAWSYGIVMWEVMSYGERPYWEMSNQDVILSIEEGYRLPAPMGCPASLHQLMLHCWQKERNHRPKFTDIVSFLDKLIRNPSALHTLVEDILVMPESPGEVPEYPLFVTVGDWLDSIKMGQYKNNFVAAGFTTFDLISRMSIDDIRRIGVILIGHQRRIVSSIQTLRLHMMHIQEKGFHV

[27] = biological target: CDK6 CCND3 (human) (UniProt P30281+Q00534)
[28] = biological target: CDK6 CCND1 (human) (UniProt Q00534+P24385)
[29] = biological target: VRK1 (human) (UniProt Q99986)
Chain of VRK1 (human) (Q99986 whole entry, looked up): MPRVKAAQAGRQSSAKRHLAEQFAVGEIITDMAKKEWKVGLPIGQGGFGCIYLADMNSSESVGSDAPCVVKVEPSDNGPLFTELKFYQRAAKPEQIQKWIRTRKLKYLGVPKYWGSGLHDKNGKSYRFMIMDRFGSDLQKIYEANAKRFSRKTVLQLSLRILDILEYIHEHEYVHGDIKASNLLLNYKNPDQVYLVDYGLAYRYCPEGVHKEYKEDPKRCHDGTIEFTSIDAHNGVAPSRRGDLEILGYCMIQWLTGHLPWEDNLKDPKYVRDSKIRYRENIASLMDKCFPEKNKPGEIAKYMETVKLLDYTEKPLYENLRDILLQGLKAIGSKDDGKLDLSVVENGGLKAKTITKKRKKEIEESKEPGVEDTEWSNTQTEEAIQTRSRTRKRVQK

[30] = biological target: DAPK2 (human) (UniProt Q9UIK4)
[31] = biological target: JAK3 JH1 JH2 (human) (UniProt P52333)
[32] = biological target: NLK (human) (UniProt Q9UBE8)
[33] = biological target: MST4 (human) (UniProt Q9P289)
[34] = biological target: NEK6 (human) (UniProt Q9HC98)
[35] = biological target: STK39 (human) (UniProt Q9UEW8)
[36] = biological target: DCLK2 (human) (UniProt Q8N568)
[37] = biological target: MATK (human) (UniProt P42679)
[38] = biological target: FLT3 (human) (UniProt P36888)
[39] = biological target: LYN (human) (UniProt P07948)
[40] = biological target: PRKG1 (human) (UniProt Q13976)
Chain of PRKG1 (human) (Q13976 whole entry, looked up): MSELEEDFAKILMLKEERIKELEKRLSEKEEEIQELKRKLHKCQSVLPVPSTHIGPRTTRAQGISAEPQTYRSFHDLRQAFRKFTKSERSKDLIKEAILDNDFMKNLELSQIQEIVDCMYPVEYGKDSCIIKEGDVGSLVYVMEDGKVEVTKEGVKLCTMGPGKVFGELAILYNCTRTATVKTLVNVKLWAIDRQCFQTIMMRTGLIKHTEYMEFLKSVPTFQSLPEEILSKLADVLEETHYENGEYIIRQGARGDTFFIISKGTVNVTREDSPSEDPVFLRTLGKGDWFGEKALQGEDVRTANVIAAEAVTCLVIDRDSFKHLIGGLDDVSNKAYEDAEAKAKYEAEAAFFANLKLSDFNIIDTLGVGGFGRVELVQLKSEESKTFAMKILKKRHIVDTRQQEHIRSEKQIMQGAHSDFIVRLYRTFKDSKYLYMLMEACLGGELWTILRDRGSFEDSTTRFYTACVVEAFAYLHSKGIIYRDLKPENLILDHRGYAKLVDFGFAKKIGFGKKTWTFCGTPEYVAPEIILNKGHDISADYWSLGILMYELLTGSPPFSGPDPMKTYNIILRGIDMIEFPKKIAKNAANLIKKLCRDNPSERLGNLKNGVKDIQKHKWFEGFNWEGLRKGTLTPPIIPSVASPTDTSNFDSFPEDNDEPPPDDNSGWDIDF

[41] = biological target: BRAF (human) (UniProt P15056)

Structure (SMILES)	residual activity [2]	residual activity [5]	residual activity [6]	residual activity [8]	residual activity [9]	residual activity [10]	residual activity [12]	residual activity [13]	residual activity [14]	residual activity [15]	residual activity [16]	residual activity [17]	residual activity [18]	residual activity [19]	residual activity [20]	residual activity [22]	residual activity [24]	residual activity [25]	residual activity [26]	residual activity [28]	further results
COc1ccc(S(=O)(=O)N(CCO)c2ccccc2CN(C)C/C=C/c2ccc(Cl)cc2)cc1	101%	106%	96.7%	102%	99.4%	96%	98.1%	99.3%	107%	95.3%	103%	98.1%	100%	95.9%	106%	97.2%	99.2%	91.9%	95.3%	92.7%	residual activity [1]: 106%; residual activity [3]: 103%; residual activity [4]: 97.6%; residual activity [7]: 95.6%; residual activity [11]: 95.1%; residual activity [21]: 97.6%; residual activity [23]: 94.7%; residual activity [27]: 102%; residual activity [29]: 96.4%; residual activity [30]: 107%; residual activity [31]: 97%; residual activity [32]: 101%; residual activity [33]: 105%; residual activity [34]: 103%; residual activity [35]: 92.8%; residual activity [36]: 99.1%; residual activity [37]: 101%; residual activity [38]: 98.4%; residual activity [39]: 92.3% and 96.8%; residual activity [40]: 93.2% and 94.7%
Fc1ccc(-c2nc3n(c2-c2ccncc2)CCS3)cc1	97.7%	98.5%	105%	101%	97.8%	96.1%	105%	95.7%	106%	104%	97%	124%	88.7%	87.4%	79.2%	97.7%	106%	102%	94.7%	97%	residual activity [1]: 90.7%; residual activity [3]: 106%; residual activity [4]: 72.3%; residual activity [21]: 95%; residual activity [23]: 92.2%; residual activity [27]: 108%; residual activity [29]: 86.8%; residual activity [30]: 113%; residual activity [31]: 94.3%; residual activity [32]: 41.1%; residual activity [33]: 109%; residual activity [34]: 98.7%; residual activity [35]: 103%; residual activity [36]: 97.4%; residual activity [37]: 89.4%; residual activity [38]: 94.7%; residual activity [39]: 106% and 97.4%; residual activity [40]: 103% and 95.9%
CO[C@@H]1[C@H](N(C)C(=O)c2ccccc2)C[C@H]2O[C@]1(C)n1c3ccccc3c3c4c(c5c6ccccc6n2c5c31)C(=O)NC4	85.1%	2.96%	36%	97.8%	95.3%	35.1%	97.9%	1.38%	36.8%	70.2%	81.9%	49.2%	96%	20.4%	37%	10.7%	96.9%	64.4%	79.5%	96.5%	residual activity [7]: 55.1%; residual activity [41]: 106%; residual activity [29]: 90.8%; residual activity [30]: 105%; residual activity [31]: 0.781%; residual activity [32]: 96.9%; residual activity [33]: 23.8%; residual activity [34]: 110%; residual activity [35]: 96%; residual activity [36]: 101%; residual activity [37]: 113%; residual activity [40]: 18.8% and 8.37%
Cc1cncc2cccc(S(=O)(=O)N3CCCN(C(=O)CN)C[C@H]3C)c12	96.2%	34.9%	102%	103%	98.4%	98.1%	109%	98.4%	93.2%	99.4%	98%	113%	95.1%	34.4%	83.2%	52.4%	99.9%	98.6%	92.2%	99.8%	residual activity [1]: 98.7%; residual activity [3]: 110%; residual activity [4]: 87.6%; residual activity [11]: 101%; residual activity [21]: 98%; residual activity [23]: 94.9%; residual activity [27]: 104%; residual activity [29]: 102%; residual activity [30]: 103%; residual activity [31]: 93.1%; residual activity [32]: 99.6%; residual activity [33]: 107%; residual activity [34]: 93.3%; residual activity [35]: 95.3%; residual activity [36]: 89%; residual activity [37]: 94.4%; residual activity [38]: 90.1%; residual activity [39]: 101%; residual activity [40]: 78.7% and 85%
Cc1nc(-c2ccccc2)c(-c2ccncc2)o1	96.6%	97.3%	98.2%	101%	95.4%	98.7%	105%	98.7%	104%	87.6%	98.1%	108%	91.9%	88.1%	94.3%	103%	112%	97.2%	95.9%	101%	residual activity [1]: 89.4%; residual activity [3]: 99.9%; residual activity [4]: 85.1%; residual activity [7]: 107%; residual activity [11]: 101%; residual activity [21]: 109%; residual activity [23]: 93.6%; residual activity [27]: 109%; residual activity [29]: 98.5%; residual activity [30]: 106%; residual activity [31]: 90.7%; residual activity [32]: 79.4%; residual activity [33]: 114%; residual activity [34]: 94.4%; residual activity [35]: 97.1%; residual activity [36]: 97%; residual activity [37]: 90.3%; residual activity [38]: 95.2%; residual activity [39]: 104% and 97.4%; residual activity [40]: 90.5% and 96.1%
